Like-named read-outs stand apart in the source and are kept apart here.
Key:
[1] = target: T1, human Werner helicase (WRN-BV08, amino acids 517-1235, L1074F) (Homo sapiens, UniProt Q14191, L1074F); test: WRN (BV08) ADP-Glo Assay (ATPase inhibition); assay type: biochemical
T1 construct: TEV-cleavable 8×His tag (C, cleaved yes); made in house; host or cells: Sf9 insect cells (baculovirus)
Excerpt: Example 2: WRN (BV08) ADP-Glo Assay Protocol
Bovine skin gelatin (BSG), dimethyl sulfoxide (DMSO), Pluronic F-127 and tris(2-carboxyethyl)phosphine hydrochloride solution (TCEP) were purchased from Sigma-Aldrich (St. Louis, MO) at the highest level of purity possible. Bicine buffer solution was purchased from Alfa Aesar (Tewksbury, MA) and compound NSC-617145 was purchased from Tocris (Minneapolis, MN). DNA duplex was synthesized at BGI (Shenzhen, China) and was composed of strand 1 with the sequence 5′-[…]-3′ (SEQ ID NO.: 1) and strand 2 with the sequence 5′-[…]-3′ (SEQ ID NO.: 2). DNA strands were annealed by heating to 95° C. for 5 minutes followed by slow cooling to room temperature. Compounds in 100% DMSO (0.1 μl) were spotted into a 384-well white polystyrene Optiplate-384 (Perkin Elmer; Waltham, MA) assay plate using a LabCyte Echo 550 (Agilent; Santa Clara, CA). DMSO (0.1 μl) was added to columns 12, rows A-H and column 24, rows I-P for the maximum signal control. Compound NSC-617145 (0.1 μl) was added to columns 12, rows I-P and 24, rows A-H for the minimum signal control (100% inhibition). Compounds/DMSO were preincubated for 15 minutes at 25° C. with 5 μl 2×WRN (BV08), prepared as described below, in assay buffer containing 20 mM Bicine (pH=7.5), 1 mM MgCl2, 10 mM KCl, 0.1% Pluronic F-127, 0.005% BSG, 1 mM TCEP. The reaction was initiated by the addition of 5 μl 2× substrate mixture in assay buffer and incubated for 60 minutes at 25° C. The final concentrations of the assay components were 0.15 nM WRN, 5 μM ATP, and 0.1 nM DNA duplex. The final DMSO concentration was 1% and the reference compound concentration (NSC-617145) used for the minimal signal control was 20 μM. The reaction was stopped by the addition of the ADP-Glo Kit components (Promega; Madison, WI) as directed and the relative luminescence units (RLU) were read on an Envision 2104 (Perkin Elmer; Waltham, MA). % inhibition calculation:
Where RLU=relative luminescence units, sample=signal in sample well, and MIN and MAX are the respective minimum and maximum signal controls.
Four-parameter IC50 fit equation:
Where top and bottom are normally allowed to float but may be fixed at 100 or 0 respectively in a 3-parameter fit. Y is the % inhibition and X is the compound concentration.
Molecular Biology and virus production. The DNA encoding human Werner helicase (Uniprot Q14191, amino acids 517-1235 with L1074F point mutation) was generated with codon-optimization for E. coli expression and subcloned into the pFastBac vector with a TEV cleavable 8×His tag (WRN—BV08). The baculovirus from the expression plasmid WRN—BV08 was generated from transfection and amplification following the manufacturer's instructions.
Sf9 cells grown in SF900II media were infected with 1:200 WRN—BV08 P2 virus and incubated for protein expression for 72 h at 27° C. The WRN protein was purified using the following protocol. The cell pellets were thawed and resuspended in buffer A (50 mM Tris, pH 7.5, 500 mM NaCl, 1 mM TCEP, 10% Glycerol) supplemented with 0.5% CHAPS, 1 mM [COMPOUND LEFT OUT], 1 μg/ml Leupeptin, 1 μg/ml Pepstatin, and the Pierce Universal Nuclease and cocktail tablet. Cleared lysates were loaded onto a Ni Sepharose™ excel column and washed with buffer A and bound protein was eluted with buffer A supplemented with 300 mM imidazole. The eluted protein was dialyzed against buffer A and digested by His-tagged TEV (1:5 ratio) overnight at 4° C. ZnCl2 was added into the sample at final 15 μM before loading onto a second Ni Sepharose™ excel column. Untagged WRN protein was eluted from the column with buffer A supplemented with 20 mM imidazole, dialyzed overnight into buffer B (50 mM Tris, pH 7.5, 1 mM TCEP, 10% Glycerol) supplemented with 150 mM NaCl and loaded onto a Heparin column. Proteins were eluted with a step gradient of buffer B supplemented with 150 mM, 200 mM, 300 mM and 500 mM NaCl. […]

p21 in HCT116 cells = target: T2, p21 in HCT116 cells (Homo sapiens, UniProt Q14191); test: p21 induction in HCT116 cells; assay type: cell-based; settings: 24 h, p21/GAPDH signal ratio, % activation vs internal reference WRN inhibitor, read-out: P21_EC50
T2 construct: p21 induction in-cell western, 24 h
Experimental: (§1) Example 3: Method for Determining Effect on p21 Induction in Cells
(§2) The colon carcinoma cell line HCT116 was obtained from ATCC and cultured in growth medium consisting of Mccoy's 5A Medium (Gibco 16600108) supplemented with 10% FBS (Transgene FS201-02) and 100 units/mL penicillin-streptomycin (Gibco 15140122) and maintained at 37° C. under 5% CO2. On the day of seeding, 2,000 cells in 30 μL of culture media were plated per well to Poly-D-Lysine 384 Well Black Clear Plates (Biocoat 356663) and incubated overnight at 37° C. under 5% CO2. The following day, compounds were serially diluted in DMSO for a total of 11 test concentrations. The typical starting concentration of cpds was 10 uM with 2-fold dilutions. Next, 150 nL of diluted compound was added in duplicate to the assay plate, using an Echo 655 (Labcyte). The plate was centrifuged at 500 RPM for 1 min and then incubated at 37° C. under 5% CO2 for 24 h. After 24 h, medium was removed, and cells were fixed by adding 40 μL of 4% paraformaldehyde solution to each well and incubated for 20 min at room temperature. The plate was then washed 4 times with 100 μL per well of wash buffer (PBS with 0.1% Tween-20) using a microplate washer. Next, 30 μL of ice-cold methanol was added to each well and the plate was incubated at −20° C. for 10 min. The plate was washed 4 times with 100 µL per well of wash buffer by a microplate washer, then 30 μL per well of blocking buffer ((Intercept PBS blocking buffer (LI-COR 927-70001) with 0.05% Tween-20)) was added and the plate was incubated at room temperature with shaking for 2 h. Next, to each test well, 20 μL of primary antibody solution ((p21 Waf1/CIP (12D1) Rabbit mAb (Cell Signaling Technologies 2947) diluted 1:1000 and GAPDH (D4C6R) Mouse mAb (Cell Signaling Technologies 97166) diluted 1:2000 in blocking buffer)) was added and the plate was placed at 4° C., overnight. The following day, the plate was washed 5 times with 100 μL per well of wash buffer using a microplate washer for 5 min. 20 μL per well of secondary antibody ((IRDye 680CW Goat anti-Mouse IgG (H+L) (LI-COR 926-68070) diluted 1: 2000 in Blocking Buffer and IRDye 800CW Goat anti-Rabbit IgG (H+L) (LI-COR 926-32211) diluted 1: 2000 in Blocking Buffer)) was then added and the plate was stored for 2 h in the dark at room temperature with shaking. The plate was then washed 4 times with 100 μL per well of wash buffer again using a microplate washer. Finally, the p21 signal and the GAPDH signal were quantified using a LI-COR Odyssey CLx Imager machine reading at 800 nm and 700 nm, respectively. Each plate contained DMSO control (low control) and an internal reference WRN inhibitor (high control) respectively. For quantitation, the 800 nm/700 nm ratio was calculated for each well to give fold p21 induction and then percent activation for each compound well was calculated as follows ((100×(ratio cpd well-ratio low control)/(ratio high control−ratio low control)). EC50 values for each compound was generated after non-linear regression curve fitting using commercially available software.

[2] = p21 induction in HCT116 cells; assay type: cell-based, human; settings: read-out: P21_EC50, 24 h, p21/GAPDH signal ratio, % activation vs internal reference WRN inhibitor
Experimental: as §1, §2

[3] = 0.15 nM WRN, 5 μM ATP, 0.1 nM DNA duplex, pH 7.5, 15 min preincubation, 60 min at 25° C., 1% DMSO, read-out: ADP-Glo_hWRN_IC50

T1 sequence (Q14191 with tags, fused parts or gaps L1074F): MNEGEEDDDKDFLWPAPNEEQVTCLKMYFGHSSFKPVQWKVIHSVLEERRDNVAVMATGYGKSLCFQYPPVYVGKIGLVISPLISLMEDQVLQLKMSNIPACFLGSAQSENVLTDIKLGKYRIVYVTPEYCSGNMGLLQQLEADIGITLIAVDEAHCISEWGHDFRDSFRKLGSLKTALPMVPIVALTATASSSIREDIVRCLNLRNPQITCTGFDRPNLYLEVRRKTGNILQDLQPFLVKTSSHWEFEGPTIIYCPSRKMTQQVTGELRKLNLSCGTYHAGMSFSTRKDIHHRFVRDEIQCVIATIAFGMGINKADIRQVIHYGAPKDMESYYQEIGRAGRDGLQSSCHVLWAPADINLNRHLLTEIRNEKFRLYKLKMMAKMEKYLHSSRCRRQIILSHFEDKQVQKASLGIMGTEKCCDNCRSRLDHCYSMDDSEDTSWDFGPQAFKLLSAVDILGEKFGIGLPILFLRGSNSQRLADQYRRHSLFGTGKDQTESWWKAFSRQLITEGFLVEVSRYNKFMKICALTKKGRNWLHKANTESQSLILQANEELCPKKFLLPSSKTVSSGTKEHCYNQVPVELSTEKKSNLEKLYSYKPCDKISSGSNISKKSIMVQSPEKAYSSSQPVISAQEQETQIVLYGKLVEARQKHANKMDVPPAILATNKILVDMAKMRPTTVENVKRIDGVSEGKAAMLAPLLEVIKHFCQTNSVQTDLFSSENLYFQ
T2 sequence (Q14191 whole entry): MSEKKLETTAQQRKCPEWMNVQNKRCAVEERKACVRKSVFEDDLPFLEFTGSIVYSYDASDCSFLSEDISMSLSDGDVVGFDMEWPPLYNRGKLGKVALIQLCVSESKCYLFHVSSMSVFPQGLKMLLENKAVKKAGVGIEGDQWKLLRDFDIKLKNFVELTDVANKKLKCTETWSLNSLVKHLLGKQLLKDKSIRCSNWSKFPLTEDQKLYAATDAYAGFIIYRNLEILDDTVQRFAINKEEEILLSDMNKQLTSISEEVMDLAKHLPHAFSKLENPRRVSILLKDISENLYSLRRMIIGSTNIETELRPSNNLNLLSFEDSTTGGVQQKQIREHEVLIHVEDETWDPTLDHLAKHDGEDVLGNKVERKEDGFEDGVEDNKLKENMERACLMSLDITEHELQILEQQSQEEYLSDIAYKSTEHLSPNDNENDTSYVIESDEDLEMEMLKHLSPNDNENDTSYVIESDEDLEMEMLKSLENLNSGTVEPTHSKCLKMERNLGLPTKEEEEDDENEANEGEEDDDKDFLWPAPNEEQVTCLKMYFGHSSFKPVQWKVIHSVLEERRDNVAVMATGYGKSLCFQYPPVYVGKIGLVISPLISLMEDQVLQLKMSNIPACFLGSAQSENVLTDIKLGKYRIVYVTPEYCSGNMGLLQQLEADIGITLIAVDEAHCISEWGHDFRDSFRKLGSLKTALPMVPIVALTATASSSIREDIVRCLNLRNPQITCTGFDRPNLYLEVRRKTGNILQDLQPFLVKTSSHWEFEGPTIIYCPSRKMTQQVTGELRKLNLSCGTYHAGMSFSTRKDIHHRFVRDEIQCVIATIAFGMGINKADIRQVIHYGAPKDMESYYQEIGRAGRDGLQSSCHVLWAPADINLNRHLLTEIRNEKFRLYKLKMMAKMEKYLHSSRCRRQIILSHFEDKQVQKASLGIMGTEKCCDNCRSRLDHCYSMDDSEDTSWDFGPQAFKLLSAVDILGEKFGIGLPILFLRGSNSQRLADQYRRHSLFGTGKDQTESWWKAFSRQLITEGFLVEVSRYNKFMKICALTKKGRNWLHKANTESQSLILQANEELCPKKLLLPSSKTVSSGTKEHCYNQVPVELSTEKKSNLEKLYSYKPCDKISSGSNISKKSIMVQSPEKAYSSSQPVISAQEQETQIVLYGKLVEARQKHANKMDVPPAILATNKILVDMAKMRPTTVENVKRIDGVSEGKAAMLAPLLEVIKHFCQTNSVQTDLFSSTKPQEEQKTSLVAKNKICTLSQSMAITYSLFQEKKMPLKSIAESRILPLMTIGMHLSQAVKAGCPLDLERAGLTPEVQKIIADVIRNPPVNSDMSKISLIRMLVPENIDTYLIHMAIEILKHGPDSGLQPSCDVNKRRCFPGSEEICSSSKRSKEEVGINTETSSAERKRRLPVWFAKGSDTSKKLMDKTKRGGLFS

| IC50 [1, 3] | EC50 (p21 in HCT116 cells) | IC50 [1] | EC50 [2] | SMILES |
| --- | --- | --- | --- | --- |
| 5 to 50 nM |  |  |  | CCc1c(N2CCN(C(=O)c3ncnc(C)c3O)CC2)c(=O)c2nc(-c3cnn(C)c3)sc2n1CC(=O)Nc1ccc(C(F)(F)F)cc1Cl [1-7] |
|  | > 5000 nM |  |  | CCc1c(N2CCN(C(=O)c3ncnc(C)c3O)CC2)c(=O)c2nc(-c3cnn(C)c3)sc2n1CC(=O)Nc1ccc(C(F)(F)F)cc1Cl [Compound I-7, N-(2-chloro-4-(trifluoromethyl)phenyl)-2-(5-ethyl-6-(4-(5-hydroxy-6-methylpyrimidine-4-carbonyl)piperazin-1-y1)-2-(1-methyl-1H-pyrazol-4-y1)-7-oxothiazolo[5,4-b]pyridin-4(7H)-yl)acetamide] |
| < 5 nM | < 500 nM |  |  | CCc1c(N2CCN(C(=O)c3ncnc(C)c3O)CC2)c(=O)c2sc(-c3ccnc(OC)c3)nc2n1CC(=O)Nc1ccc(C(F)(F)F)cc1Cl [Compound I-2, N-(2-chloro-4-(trifluoromethyl)phenyl)-2-(5-ethyl-6-(4-(5-hydroxy-6-methylpyrimidine-4-carbonyl)piperazin-1-yl)-2-(2-methoxypyridin-4-y1)-7-oxothiazolo[4,5-b]pyridin-4(7H)-yl)acetamide] |
| 5 to 50 nM | 500 to 2000 nM |  |  | CCc1c(N2CCN(C(=O)c3c(O)ccnc3OC)CC2)c(=O)c2nc(-c3ccnc(OC)c3)sc2n1CC(=O)Nc1ccc(C(F)(F)F)cc1Cl [Compound I-5, N-(2-chloro-4-(trifluoromethyl)phenyl)-2-(5-ethyl-6-(4-(4-hydroxy-2-methoxynicotinoyl)piperazin-1-y1)-2-(2-methoxypyridin-4-y1)-7-oxothiazolo[5,4-b]pyridin-4(7H)-y1)acetamide] |
| 5 to 50 nM |  |  |  | CCc1c(N2CCN(C(=O)c3ncnc(C)c3O)CC2)c(=O)c2nc(C3=CCOCC3)sc2n1CC(=O)Nc1ccc(C(F)(F)F)cc1Cl [Compound I-3, N-(2-chloro-4-(trifluoromethyl)phenyl)-2-(2-(3,6-dihydro-2H-pyran-4-y1)-5-ethyl-6-(4-(5-hydroxy-6-methylpyrimidine-4-carbonyl)piperazin-1-yl)-7-oxothiazolo[5,4-b]pyridin-4(7H)-yl)acetamide] |
| 5 to 50 nM | 500 to 2000 nM |  |  | CCc1c(N2CCN(C(=O)c3ncnc(C)c3O)CC2)c(=O)c2nc(-c3ccnc(OC)c3)sc2n1CC(=O)Nc1ccc(C(F)(F)F)cc1Cl [Compound I-1, N-(2-chloro-4-(trifluoromethyl)phenyl)-2-(5-ethyl-6-(4-(5-hydroxy-6-methylpyrimidine-4-carbonyl)piperazin-1-yl)-2-(2-methoxypyridin-4-yl)-7-oxothiazolo[5,4-b]pyridin-4(7H)-yl)acetamide] |
| 5 to 50 nM | 2000 to 5000 nM |  |  | CCc1c(N2CCN(C(=O)c3ncnc(C)c3O)CC2)c(=O)c2nc(N3CCCC3)sc2n1CC(=O)Nc1ccc(C(F)(F)F)cc1Cl [Compound I-4, N-(2-chloro-4-(trifluoromethyl)phenyl)-2-(5-ethyl-6-(4-(5-hydroxy-6-methylpyrimidine-4-carbonyl)piperazin-1-yl)-7-oxo-2-(pyrrolidin-1-yl)thiazolo[5,4-b]pyridin-4(7H)-yl)acetamide] |
|  |  | 5 to 50 nM | 500 to 2000 nM | C=C(C)c1nc2c(=O)c(N3CCN(C(=O)c4ncnc(C)c4O)CC3)c(CC)n(CC(=O)Nc3ccc(C(F)(F)F)cc3Cl)c2s1 [Compound I-6, N-(2-chloro-4-(trifluoromethyl)phenyl)-2-(5-ethyl-6-(4-(5-hydroxy-6-methylpyrimidine-4-carbonyl)piperazin-1-yl)-7-oxo-2-(prop-1-en-2-yl)thiazolo[5,4-b]pyridin-4(7H)-yl)acetamide] |
|  | 2000 to 5000 nM |  |  | CCc1c(N2CCN(C(=O)c3ncnc(C)c3O)CC2)c(=O)c2nc(C3=CCOCC3)sc2n1CC(=O)Nc1ccc(C(F)(F)F)cc1Cl [1-3] |
| 5 to 50 nM | > 5000 nM |  |  | CCc1c(N2CCN(C(=O)c3ncnc(C)c3O)CC2)c(=O)c2sc(-c3ccnc(OC)c3)nc2n1CC(=O)NC12CC(C(F)(F)F)(C1)C2 [Compound I-8, 2-(5-ethyl-6-(4-(5-hydroxy-6-methylpyrimidine-4-carbonyl)piperazin-1-yl)-2-(2-methoxypyridin-4-y1)-7-oxothiazolo[4,5-b]pyridin-4(7H)-y1)-N-(3-(trifluoromethyl)bicyclo[1.1.1]pentan-1-yl)acetamide] |
